In article PMC9695642, “Conservation of Importin α Function in Apicomplexans: Ivermectin and GW5074 Target Plasmodium falciparum Importin α and Inhibit Parasite Growth in Culture” (International Journal of Molecular Sciences, 2022):
Several values for one entry are separate records, joined by “and”; a condition that tells them apart may be missing. Equal entries are not always repeated. Where two headings read alike, the source gives them in different places.

Assays:
[1] = system: P. falciparum 3D7 strain; assay: P. falciparum growth inhibition, HRP2-based sandwich ELISA; assay type: cell-based, Plasmodium falciparum
Description: To test the potential antimalarial action of GW5074, we compared the activity of GW5074 to ivermectin against the asexual stages of P. falciparum parasites, using an established HRP2-based (histidine-rich protein 2) ELISA [38, 39, 40]. The assay uses a sandwich ELISA to measure HRP2 levels as an indicator of parasite growth; the clinically prescribed drug dihydroartemisinin (DHA) was used as a positive control.
Figure 6 Ivermectin and GW5074 inhibit P. falciparum parasites in culture at low µM concentrations. P. falciparum cultures (0.25% parasitemia) were treated with increasing concentrations of the indicated compounds for 72 h, after which the HRP2-based sandwich ELISA was used to measure the HRP2 levels, determined by optical density. The results shown are from a single typical experiment performed in duplicate (SD shown), representative of a series of three independent experiments (see Table 5 for pooled data).
P. falciparum 3D7 strain was cultured and maintained in human red blood cells (RBCs) using RPMI (Roswell Park Memorial Institute) 1640 medium supplemented with 0.5% Albumax (GibcoTM, Waltham, MA, USA), 50 mg/L hypoxanthine (Sigma-Aldrich, St. Louis, MO, USA), 2 g/L D-glucose (Sigma-Aldrich, St. Louis, MO, USA), 2 g/L sodium bicarbonate (Sigma-Aldrich, St. Louis, MO, USA), and 56 mg/L of gentamicin (Abbott, Chicago, IL, USA) at 37 °C in 5% CO2 in a humidified incubator, according to the standard procedures. Cultures presynchronised using 5% D-sorbitol (Sigma-Aldrich, St. Louis, MO, USA) to obtain predominantly the ring stage of the P. falciparum life cycle were used for the growth assays, as previously. DHA (a gift from IPCA Laboratories, Mumbai, India) was used as a control. Growth assays in the absence and presence of inhibitors were performed using the HRP2 sandwich horseradish peroxidase-linked immunosorbent assay that measures HRP2 levels as an indicator of growth.

[2] = molecular target: T1, PfIMPα (Plasmodium falciparum, UniProt Q8IAW0); assay: AlphaScreen inhibition of PfIMPα binding to TGS1-NLS-GFP
Description: (§1) Inhibitors of mammalian IMPα function are of key interest as anti-infectious agents. One of the first described is the small molecule macrocyclic lactone ivermectin, produced by the bacterium Streptomyces avermitilis, that is approved by the US Food and Drug Administration for parasitic infections. […] Chemically distinct from ivermectin, GW5074 (3-(3,5-dibromo-4-hydroxybenzyliden)-5-iodo-1,3-dihydroindol-2-one) binds to mammalian IMPα with analogous structural effects on IMPα and inhibitory effects on NLS recognition/IMPβ1 binding by IMPα [24]. […] We set out to test the activity of these inhibitors with respect to NLS binding by PfIMPα and TgIMPα, with NLS binding by MmIMPα analysed in parallel (Figure 3; Table 3). As expected, ivermectin and GW5074 inhibited MmΔIBBIMPα-SV40 T-ag with IC50 values of 5–6 µM, consistent with published data. […] The results clearly indicate that chemical inhibitors known to target mammalian IMPα can inhibit apicomplexan IMPα, underlining the structural and functional conservation of IMPα from apicomplexans to mammalian systems.
(§2) Figure 3 Ivermectin and GW5074 inhibit IMPα-NLS interaction at low micromolar concentration. AlphaScreen technology was used to determine the IC50 for inhibition by ivermectin and GW5074 binding of IMPαs (5 nM) to NLS (30 nM). Data represent the mean ± SEM for quadruplet wells from a single experiment, from a series of 3 independent experiments (see Table 3 for pooled data).
(§3) PfIMPα, TgIMPα, MmIMPα, ΔIBBMmIMPα, and MmIMPβ1 GST fusion proteins were expressed and purified essentially as previously. His-tagged T-ag-NLS-GFP, TGS1-NLS-GFP, GCN5-NLS-GFP, PfIMPα, and TgIMPα proteins were all purified using Ni^2+-affinity chromatography, as previously. Biotinylation of GST-tagged proteins was carried out using the Sulfo-NHS-Biotin reagent (Pierce, Rockford, IL, USA), as described previously. The AlphaScreen binding assay was performed as previously.

[3] = molecular target: PfIMPα:MmIMPβ1 (Plasmodium falciparum, UniProt Q8IAW0); assay: AlphaScreen inhibition of PfIMPα binding to MmIMPβ1
Description: (§4) As indicated, both ivermectin and GW5074 have been previously shown to inhibit interaction between mammalian IMPα and IMPβ1 [24, 32]. We tested their activity towards apicomplexan IMPα (Figure 4; Table 4). As previously observed, binding of MmIMPα:MmIMPβ1 was inhibited strongly by both agents, with IC50 values of c. […] Clearly, ivermectin and GW5074 are able to act on apicomplexan IMPα in analogous fashion to MmIMPα in terms of the ability to bind to IMPβ1, the results further underlining the structural and functional conservation of IMPα from apicomplexans to mammalian systems.
(§5) Figure 4 Ivermectin and GW5074 inhibit IMPα–IMPβ interaction. AlphaScreen technology was used to determine the IC50 for inhibition by ivermectin and GW5074-binding of IMPβ (30 nM) to IMPαs (30 nM). Data represent the mean ± SEM for quadruplet wells from a single experiment, from a series of three independent experiments (see Table 4 for pooled data).
as §3

[4] = molecular target: TgIMPα:MmIMPβ1 (Toxoplasma gondii, UniProt A0A125YID0); assay: AlphaScreen inhibition of TgIMPα binding to MmIMPβ1
Description: as §4, §5, §3

[5] = molecular target: T2, MmIMPα:MmIMPβ1 (Mus musculus, UniProt P52293); assay: AlphaScreen inhibition of MmIMPα binding to MmIMPβ1
T2 construct: His; made in house
Description: as §4, §5, §3

[6] = molecular target: T1, PfIMPα; assay: Far-UV CD spectroscopy, α-helical content of PfIMPα with compound; assay type: binding; conditions: PfIMPα alone c. 63 % α-helical
Method: Previous analysis for MmIMPα using several biophysical approaches had established that the mechanism by which both ivermectin and GW5074 have an impact on NLS and IMPβ1 binding by MmIMPα is by direct binding to the ARM repeat domain of IMPα to perturb structural conformation. […] 63 % α-helical, compared to c. 70 % for MmIMPα (Figure 5b).
CD spectra were also analysed in the presence of increasing concentrations of ivermectin and GW5074, with both agents having a marked impact on the structure, especially at high concentrations (Figure 5a,b), consistent with the idea that both bind to the proteins directly to perturb structure. PfIMPα appeared to be particularly susceptible to both agents, with 30 µM GW5074 reducing α-helicity by more than a half (Figure 5a,b) to a residual value of 30%, which fell below 10% in the presence of 80 µM GW5074. […] 20% at 80 µM. The results, overall, indicate that both ivermectin and GW5074 can bind to and destabilise the structure of both PfIMPα and TgIMPα in analogous fashion to their known effects on mammalian IMPα, further underlining the conservation of structure and function between apicomplexan and mammalian IMPαs.
Figure 5 CD spectra for apicomplexan and mammalian IMPαs in the absence and presence of ivermectin and GW5074. CD spectra were collected for PfIMPα, TgIMPα, and MmIMPα in the absence or presence of 30 μM and 80 μM ivermectin and GW5074. (a) Spectra shown are from a single experiment, representative of two independent experiments for 30 μM concentration of ivermectin and GW5074. Note: θ is ellipticity. […]
CD spectroscopy was used to study the binding of ivermectin and GW5074 to PfIMPα, TgIMPα and MmIMPα, as previously described. CD spectra of the proteins at 0.1 mg/mL concentration were recorded from 200–260 nm using Jasco CD spectrometer (Jasco, Portland, OR, USA). CD spectra of the IMPαs were also measured in the presence of 30 µM and 80 µM concentrations of the ivermectin and GW5074 compounds. Percentage α-helix content was calculated from the ellipticity at 222 nm as described in [51]. […]

[7] = molecular target: TgIMPα (Toxoplasma gondii, UniProt A0A125YID0); assay: AlphaScreen inhibition of TgIMPα binding to T-ag-NLS-GFP
Description: as §1, §2, §3

[8] = molecular target: T3, MmΔIBBIMPα (Mus musculus, UniProt P52293); assay: AlphaScreen inhibition of MmΔIBBIMPα binding to T-ag-NLS-GFP
T3 construct: GST; made in house
Description: as §1, §2, §3

[9] = Plasmodium falciparum, 3D7, 72 h, 72 h, single typical experiment in duplicate, read-out: IC50, P. falciparum growth (Figure 6)
[10] = Plasmodium falciparum, 3D7, 72 h, asexual stages, 72 h, pooled mean ± SD (n = 3), read-out: IC50, inhibition of growth of P. falciparum parasites in culture
[11] = AlphaScreen, IMPα 5 nM, NLS 30 nM, pooled mean ± SEM (n = 3), read-out: IC50, inhibition of PfIMPα:TGS1 NLS binding
[12] = single experiment of a series of 3, read-out: IC50, PfIMPα:TGS1-NLS-GFP (Figure 3)
[13] = AlphaScreen, IMPβ 30 nM, IMPα 30 nM, pooled mean ± SEM (n = 3), read-out: IC50, inhibition of PfIMPα:MmIMPβ1 binding
[14] = single experiment of a series of three, read-out: IC50, PfIMPα:MmIMPβ1 (Figure 4)
[15] = AlphaScreen, IMPβ 30 nM, IMPα 30 nM, pooled mean ± SEM (n = 3), read-out: IC50, inhibition of TgIMPα:MmIMPβ1 binding
[16] = single experiment of a series of three, read-out: IC50, TgIMPα:MmIMPβ1 (Figure 4)
[17] = AlphaScreen, IMPβ 30 nM, IMPα 30 nM, pooled mean ± SEM (n = 3), read-out: IC50, inhibition of MmIMPα:MmIMPβ1 binding
[18] = single experiment of a series of three, read-out: IC50, MmIMPα:MmIMPβ1 (Figure 4)
[19] = AlphaScreen, IMPα 5 nM, NLS 30 nM, pooled mean ± SEM (n = 3), read-out: IC50, inhibition of TgIMPα:SV40 T-ag NLS binding
[20] = single experiment of a series of 3, read-out: IC50, TgIMPα:T-ag-NLS-GFP (Figure 3)
[21] = AlphaScreen, IMPα 5 nM, NLS 30 nM, pooled mean ± SEM (n = 3), read-out: IC50, inhibition of ΔIBBmIMPα:SV40 T-ag NLS binding
[22] = single experiment of a series of 3, read-out: IC50, MmΔIBBIMPα:T-ag-NLS-GFP (Figure 3)
[23] = asexual stages, 72 h, pooled mean ± SD (n = 3), read-out: IC50, inhibition of growth of P. falciparum parasites in culture

Compound | IC50 [1, 9] [µM] | IC50 [1, 10] [µM] | IC50 [2, 11] [µM] | IC50 [2, 12] [µM] | IC50 [3, 13] [µM] | IC50 [3, 14] [µM] | IC50 [4, 15] [µM] | IC50 [4, 16] [µM] | IC50 [5, 17] | IC50 [5, 18] [µM] | residual α-helicity of PfIMPα ([6]; 80 µM compound) | IC50 [7, 19] [µM] | IC50 [7, 20] [µM] | IC50 [8, 21] [µM] | IC50 [8, 22] [µM] | IC50 [1, 23] [µM] | further results
C[C@H]1[C@@H](O)O[C@@H]2O[C@@]3(C)CC[C@H]4[C@H](C)CC[C@@H]1[C@@]24OO3 [DHA, dihydroartemisinin] | 0.0007 | 0.001 ± 0.0005 | – | – | – | – | – | – | – | – | – | – | – | – | – | – | IC50 ([1]; Plasmodium falciparum, 3D7, asexual stages, approximate value, read-out: IC50, P. falciparum growth): ~0.001 µM
O=C1Nc2ccc(I)cc2C1=Cc1cc(Br)c(O)c(Br)c1 [GW5074, 3-(3,5-dibromo-4-hydroxybenzyliden)-5-iodo-1,3-dihydroindol-2-one] | 6.5 | ~6 | 6.5 ± 0.4 | 6 | 41 ± 1.5 | 39 | 11 ± 1.5 | 13 | ~22 µM and 22 µM | 23 | below 10% | 7.7 ± 1.9 | 5.4 | 4.9 ± 1.4 | 2.2 | 5.5 ± 0.9 | residual α-helicity of PfIMPα ([6]; 30 µM compound): 30%
ivermectin | – | – | 5 ± 1.3 | 2.4 | 1.9 ± 0.2 | 1.5 | 6.9 ± 1.2 | 5.4 | 3.1 ± 0.5 µM | 3.9 | ~20% | 4.9 ± 0.2 | 5.2 | 6.2 ± 0.2 | 6.3 | 0.7 ± 0.1 | IC50 ([3]; AlphaScreen, IMPβ 30 nM, IMPα 30 nM, pooled mean ± SEM (n = 3), listed as ivermectin, read-out: IC50, inhibition of PfIMPα:MmIMPβ1 binding): 2 to 7 µM; IC50 ([4]; AlphaScreen, IMPβ 30 nM, IMPα 30 nM, pooled mean ± SEM (n = 3), listed as ivermectin, read-out: IC50, inhibition of TgIMPα:MmIMPβ1 binding): 2 to 7 µM; IC50 ([5]; AlphaScreen, IMPβ 30 nM, IMPα 30 nM, pooled mean ± SEM (n = 3), listed as ivermectin, read-out: IC50, inhibition of MmIMPα:MmIMPβ1 binding): ~3 µM; IC50 ([7]; AlphaScreen, IMPα 5 nM, NLS 30 nM, pooled mean ± SEM (n = 3), listed as ivermectin, read-out: IC50, inhibition of TgIMPα:SV40 T-ag NLS binding): 5 µM; IC50 ([8]; AlphaScreen, IMPα 5 nM, NLS 30 nM, pooled mean ± SEM (n = 3), listed as ivermectin, read-out: IC50, inhibition of ΔIBBmIMPα:SV40 T-ag NLS binding): 5 to 6 µM; IC50 ([1]; 72 h, single typical experiment in duplicate, read-out: IC50, P. falciparum growth (Figure 6)): 1 µM; IC50 ([1]; asexual stages, 72 h, pooled mean ± SD (n = 3), listed as ivermectin, read-out: IC50, inhibition of growth of P. falciparum parasites in culture): ~1 µM
